Read-outs that look alike come from different tables or passages of the source.

Data on eight compounds can be found in US20150218142A1, “Derivatives of Betulin” (GlaxoSmithKline LLC, priority 2011, published 2015).

The test system of data set [1] is HIV. As to conditions: McCallister et al. 2008 poster; cited from earlier work.
The subject of data set [2] is HIV. Kind of data set: microbe, parasite or virus in culture. As to conditions: Human immunodeficiency virus 1, read-out: LHIV IC50 value with 40% human serum.
Data set [3] relates to HIV.
A further data set deals with HIV NL4-3 wt. Kind of data set: microbe, parasite or virus in culture. In kind it is cell-based.
Data set [4] has as its system NL4-3 strain with V370A site directed mutant polymorphism. The data set is described as follows: microbe, parasite or virus in culture. It is filed as cell-based, HIV-1.
Setting [5] is: Human immunodeficiency virus 1, NL43, Consensus Clade B Sp1 Genotype, read-out: MT4 NL. wt* EC50.
Setting [6] is: Human immunodeficiency virus 1, NL43, HIV MT4 Antiviral Cell Assay of Example 84, read-out: EC50 NL4-3 wt.

What is called IC50 is the concentration that gives 50% inhibition. Consider `C=C(C)[C@@H]1CC[C@]2(C(=O)O)CC[C@]3(C)[C@H](CC[C@@H]4[C@@]5(C)CC[C@H](OC(=O)CC(C)(C)C(=O)O)C(C)(C)[C@@H]5CC[C@]43C)[C@@H]12` [Bevirimat], for which the Cmin target in the data set on HIV [1] is above 20000 ng/mL. Besides, in the data set with HIV [2], the concentration for half-maximal inhibition (IC50) was 3880 nM. The “fold shift in the IC50 value, LHIV assay, 40% human serum” value in the data set with HIV [3] (addition of 40% human serum) amounted to 174.9 fold. In the data set with HIV [3] (human protein shift, human serum (HS)), the “fold shift with human serum” value was 157 fold.
Turning to `CC(C)C1=C2[C@H]3CC[C@@H]4[C@@]5(C)CC[C@H](OC(=O)CC(C)(C)C(=O)O)C(C)(C)[C@@H]5CC[C@@]4(C)[C@]3(C)CC[C@@]2(C(=O)C(=O)NC2(c3ccc(Cl)cc3)CC2)CC1=O` [Compound A], the EC50 with HIV NL4-3 wt (setting [5]) was determined as 14 nM; in data set [4] (Human immunodeficiency virus 1, NL43, read-out: MT4 NL. V370A EC50 (nM)) it was 16 nM.
Regarding `CC(C)C1=C2[C@H]3CC[C@@H]4[C@@]5(C)CC[C@H](OC(=O)CC(C)(C)C(=O)O)C(C)(C)[C@@H]5CC[C@@]4(C)[C@]3(C)CC[C@@]2(C(=O)C(=O)N(CCN(C)C)Cc2ccc(Cl)cc2)CC1=O` [Compound C], the EC50 in the data set with HIV NL4-3 wt (Human immunodeficiency virus 1, NL43, Table 7, read-out: HIV w/t MT4 EC50) turned out to be 6 nM; with HIV NL4-3 wt (Human immunodeficiency virus 1, NL43, read-out: MT4 antiviral assay NL4-3 strain / HIV wild type EC50), 6 nM; in data set [4] (Human immunodeficiency virus 1, NL43, read-out: MT4 antiviral assay V370A polymorphism EC50) it was 19 nM; in data set [4] (Human immunodeficiency virus 1, NL43, read-out: V370A MT4 EC50) it was 19 nM; in data set [4] (Human immunodeficiency virus 1, NL43, read-out: protein adjusted EC50 for the V370A polymorphic virus) it was 929 nM.
For the compound `CC(C)C1=C2[C@H]3CC[C@@H]4[C@@]5(C)CC[C@H](OC(=O)CC(C)(C)C(=O)O)C(C)(C)[C@@H]5CC[C@@]4(C)[C@]3(C)CC[C@@]2(C(=O)C(=O)NC2(c3ncc(Cl)cn3)CC2)CC1=O` [CompoundB], the EC50 in the data set with HIV NL4-3 wt (setting [5]) came out at 8 nM.
As for `CC(C)C1=C2[C@H]3CC[C@@H]4[C@@]5(C)CC[C@H](OC(=O)CC(C)(C)C(=O)O)C(C)(C)[C@@H]5CC[C@@]4(C)[C@]3(C)CC[C@@]2([C@H](O)CNCc2cccc(Cl)c2)CC1=O` [compound 37], in the data set on HIV NL4-3 wt (setting [6]), the EC50 was 26.9 nM.
Regarding `CC(C)C1=C2[C@H]3CC[C@@H]4[C@@]5(C)CC[C@H](OC(=O)CC(C)(C)C(=O)O)C(C)(C)[C@@H]5CC[C@@]4(C)[C@]3(C)CC[C@@]2([C@@H](O)CNCc2cccc(Cl)c2)CC1=O` [compound 38], in the data set on HIV NL4-3 wt (setting [6]), the EC50 worked out at 5.2 nM.
The same measure, in the same setting: under `CC(=O)O[C@H](CNCc1ccccc1)[C@@]12CC[C@]3(C)[C@H](CC[C@@H]4[C@@]5(C)CC[C@H](OC(=O)CC(C)(C)C(=O)O)C(C)(C)[C@@H]5CC[C@]43C)C1=C(C(C)C)C(=O)C2` [compound 53] stands 6.2 nM; under `CC(C)C1=C2[C@H]3CC[C@@H]4[C@@]5(C)CC[C@H](OC(=O)CC(C)(C)C(=O)O)C(C)(C)[C@@H]5CC[C@@]4(C)[C@]3(C)CC[C@@]2([C@@H](O)CNC2CCCCC2)CC1=O` [compound 59], 5.3 nM.
